The values that follow come from patent US4159373A, “7-Acyl-3-(sulfonic acid and sulfamoyl substituted tetrazolyl thiomethyl) cephalosporins” (SmithKline Corporation, priority 1978, dated 1979).

The structures appear in SMILES notation. Values after ≈ are worked out from the molar mass of the structure shown. Where two headings read alike, the source gives them in different places. A value given as a limit tells only on which side of the number the result lay.

In one assay the test system is E. coli HH 33779. The assay can be described thus: MIC in vitro. It counts as cell-based. To be noted: Escherichia coli, HH33779, Table 1; E. coli HH 33779; read-out: MIC in vitro. The procedure: (§1) The compounds of Formula I have exceptional antibacterial activity against both Gram-positive and Gram-negative organisms. Minimum inhibitory concentrations (MIC's) ranged from 0.2 to <200 μg./ml. in in vitro testing.

A further assay concerns E. coli SK 12140. The assay can be described thus: MIC in vitro. The format is cell-based. To be noted: Escherichia coli. The procedure: as §1
The next assay deals with Proteus morgani 179. The assay can be described thus: MIC in vitro. It counts as cell-based. The procedure: as §1
Another assay concerns S. aureus HH 127. The assay can be described thus: MIC in vitro. It counts as cell-based. The settings on record: Staphylococcus aureus, HH127. The procedure:
as §1

The test system of a further assay is S. aureus SK 23390. The assay can be described thus: MIC in vitro. The settings on record: Staphylococcus aureus. It counts as cell-based. The procedure: as §1
The test system of the next assay is S. villaluz. The assay can be described thus: MIC in vitro. It counts as cell-based. The settings on record: Table 1. As to the method:
as §1

A further assay relates to Salmonella ATCC 12176. The assay can be described thus: MIC in vitro. The format is cell-based. The settings on record: Salmonella, ATCC12176, Table 1, read-out: MIC in vitro. As to the method:
as §1

For another assay, the system named is Strep. Faecalis HH 34358. Kind of assay: MIC in vitro. It counts as cell-based. The settings on record: Enterococcus faecalis. The procedure:
as §1

In a further assay the test system is shigella HH 117. Kind of assay: MIC in vitro. The format is cell-based. To be noted: HH117; Table 1; shigella HH 117; read-out: MIC in vitro. The procedure:
as §1

The next assay deals with Kleb. pneumo. SK 1200. The assay can be described thus: MIC in vitro. It counts as cell-based, Kleb. pneumoniae. The settings on record: Klebsiella pneumoniae. The procedure:
as §1

Another assay has as its system Kleb. pneumo. SK 4200. Kind of assay: MIC in vitro. To be noted: Klebsiella pneumoniae. It counts as cell-based, Kleb. pneumoniae. The procedure:
as §1

A further assay deals with Psuedo. sp. HH 63. The assay can be described thus: MIC in vitro. It counts as cell-based, Pseudo. aeruginosa. To be noted: Pseudomonas aeruginosa. The procedure:
as §1

Assay [1] has as its system Entero. aerog. ATCC 13048. Kind of assay: MIC in vitro. It counts as cell-based, Enterobacter aerogenes. To be noted: Klebsiella aerogenes. As to the method:
as §1

A further assay has as its system Serra. marc ATCC 13880. Kind of assay: MIC in vitro. The format is cell-based, Serratia marcescens. To be noted: Serratia marcescens. The procedure: as §1
The next assay relates to Entero. cloacae HH 31254. Kind of assay: MIC in vitro. The format is cell-based. The settings on record: Enterobacter cloacae.
The next assay deals with E. coli 12140. The assay can be described thus: In vivo mouse protection, E. coli 12140.
A further assay deals with Kleb. pneumo. 4200. The assay can be described thus: In vivo mouse protection, Kleb. pneumo. 4200. The settings on record: sc.
The test system of another assay is Staph. aureus 671. The assay can be described thus: MIC in vitro. The settings on record: Staphylococcus aureus, Example 54 table. It counts as cell-based.
For another assay, the system named is Staph. aureus 674. The assay can be described thus: MIC in vitro. It counts as cell-based. To be noted: Staphylococcus aureus, 674, Example 54 table.
A further assay has as its system E. coli 804. Kind of assay: MIC in vitro. The format is cell-based. The settings on record: Escherichia coli, Example 54 table, read-out: MIC.
For another assay, the system named is Kleb. pneumoniae 982. The assay can be described thus: MIC in vitro. To be noted: Klebsiella pneumoniae, Example 54 table, read-out: MIC. The format is cell-based.
The subject of another assay is Pseudo. aeruginosa 647. Kind of assay: MIC in vitro. The format is cell-based. To be noted: Pseudomonas aeruginosa, Example 54 table, read-out: MIC.
Another assay relates to Proteus mirabilis 444. Kind of assay: MIC in vitro. It counts as cell-based. The settings on record: Example 54 table, read-out: MIC.
Another assay has as its system Enterobacter cloacae 921. Kind of assay: MIC in vitro. It counts as cell-based. To be noted: Enterobacter cloacae, 921, Example 54 table.
Setting [2] is: SK12140, read-out: MIC in vitro, Table 1, E. coli SK 12140.
The mark [3] stands for this setting: Table 1, read-out: MIC in vitro.
Where [4] appears, read: Table 1, S. aureus HH 127, read-out: MIC in vitro.
Setting [5] is: Table 1, Strep. Faecalis HH 34358, read-out: MIC in vitro.
[6] abbreviates: Table 1, Kleb. pneumo. SK 1200, read-out: MIC in vitro.
The mark [7] stands for this setting: Table 1, Psuedo. sp. HH 63, read-out: MIC in vitro.
Where [8] appears, read: ATCC13048, Table 1, Entero. aerog. ATCC 13048, read-out: MIC in vitro.
Where [9] appears, read: ATCC13880, Table 1, Serra. marc ATCC 13880, read-out: MIC in vitro.
The mark [10] stands for this setting: Escherichia coli, 12140, sc, Table 2, E. coli 12140, s.c., read-out: ED50 in vivo.

On to `O=C(Cc1cccs1)NC1C(=O)N2C(C(=O)O)=C(CSc3nnnn3CCS(=O)(=O)O)CS[C@H]12` (stereo partly shown) [VI, 7-(2-Thienylacetamido)-3-[1-(2-sulfoethyl)tetrazol-5-ylthiomethyl]-3-cephem-4-carboxylic acid], for which the MIC (in general, the least concentration at which growth counts as inhibited) is 12.5 µg/mL (≈ 22.9 µM) with E. coli HH 33779; 3.1 µg/mL (≈ 5.67 µM) in the assay with E. coli SK 12140 (setting [2]); more than 200 µg/mL with Proteus morgani 179 (setting [3]); 1.6 µg/mL (≈ 2.93 µM) with S. aureus HH 127 (setting [4]); 0.8 µg/mL (≈ 1.46 µM) with S. aureus SK 23390 (SK23390, Table 1, S. aureus SK 23390, read-out: MIC in vitro); 3.1 µg/mL (≈ 5.67 µM) against S. villaluz. Moreover, the minimum inhibitory concentration (MIC) is 0.8 µg/mL (≈ 1.46 µM) with Salmonella ATCC 12176; 50 µg/mL (≈ 91.5 µM) in the assay on Strep. Faecalis HH 34358 (setting [5]); 3.1 µg/mL (≈ 5.67 µM) in the assay on shigella HH 117; 0.8 µg/mL (≈ 1.46 µM) in the assay with Kleb. pneumo. SK 1200 (setting [6]); 1.6 µg/mL (≈ 2.93 µM) in the assay with Kleb. pneumo. SK 4200 (Table 1, Kleb. pneumo. SK 4200, read-out: MIC in vitro); more than 200 µg/mL in the assay on Psuedo. sp. HH 63 (setting [7]). In addition, the MIC in assay [1] (setting [8]) is 25 µg/mL (≈ 45.7 µM); with Serra. marc ATCC 13880 (setting [9]) it was more than 200 µg/mL; in the assay with Entero. cloacae HH 31254 (HH31254, Table 1, read-out: MIC in vitro), 6.3 µg/mL (≈ 11.5 µM). In addition, the median effective dose (ED50) (usually the dose at which the effect has come halfway, by size or by number of responders) amounted to 4.4 mg/kg in the assay with E. coli 12140 (setting [10]) and 1.56 mg/kg in the assay with Kleb. pneumo. 4200 (Table 2, Kleb. pneumo. 4200, s.c., read-out: ED50 in vivo).

Consider `NCc1ccc(CC(=O)NC2C(=O)N3C(C(=O)O)=C(CSc4nnnn4CS(=O)(=O)O)CSC23)cc1` (stereo not shown) [Example 54, 7-(4-Aminomethylphenylacetamido)-3-(1-sulfomethyltetrazol-5-ylthiomethyl)-3-cephem-4-carboxylic acid], for which the minimum inhibitory concentration (MIC) with E. coli SK 12140 (SK12140, Example 54 table, E. coli SK&F 12140, read-out: MIC) is 6.3 µg/mL (≈ 11.3 µM); in the assay with Proteus morgani 179 (Example 54 table, read-out: MIC), more than 100 µg/mL; in the assay on S. aureus HH 127 (Example 54 table, Staph. aureus HH 127, read-out: MIC), 6.3 µg/mL (≈ 11.3 µM); in the assay on Strep. Faecalis HH 34358 (Example 54 table, Strep. faecalis HH 34358, read-out: MIC), 100 µg/mL (≈ 180 µM); with Kleb. pneumo. SK 1200 (Example 54 table, Kleb. pneumoniae SK&F 1200, read-out: MIC), 0.4 µg/mL (≈ 0.72 µM); with Kleb. pneumo. SK 4200 (Example 54 table, Kleb. pneumoniae SK&F 4200, read-out: MIC), 0.4 µg/mL (≈ 0.72 µM). Moreover, the minimum inhibitory concentration (MIC) is more than 100 µg/mL with Psuedo. sp. HH 63 (Example 54 table, Pseudo. aeruginosa HH 63, read-out: MIC); more than 100 µg/mL in [1] (ATCC13048, Example 54 table, Enterobacter aerogenes 13048, read-out: MIC); more than 100 µg/mL in the assay on Serra. marc ATCC 13880 (ATCC13880, Example 54 table, Serratia marcescens ATCC 13880, read-out: MIC); 3.1 µg/mL (≈ 5.58 µM) with Staph. aureus 671; 3.1 µg/mL (≈ 5.58 µM) against Staph. aureus 674; more than 100 µg/mL with E. coli 804. The MIC in the assay on Kleb. pneumoniae 982 was more than 100 µg/mL; in the assay on Pseudo. aeruginosa 647, more than 100 µg/mL; with Proteus mirabilis 444, 1.6 µg/mL (≈ 2.88 µM); in the assay with Enterobacter cloacae 921, 100 µg/mL (≈ 180 µM). Besides, the ED50 with E. coli 12140 (Escherichia coli, 12140, sc, Example 54, s.c., E. coli SKF 12140, read-out: ED50) is 8.7 mg/kg; in the assay on Kleb. pneumo. 4200 (Example 54, s.c., K. pneumo. SKF 4200, read-out: ED50), 0.7 mg/kg.

Regarding `NS(=O)(=O)CCn1nnnc1SCC1=C(C(=O)O)N2C(=O)C(NC(=O)CSC(F)(F)F)C2SC1` (stereo not shown) [IX, 7-Trifluoromethylthioacetamido-3-[1-(2-sulfamoylethyl)tetrazol-5-ylthiomethyl]-3-cephem-4-carboxylic acid], the MIC in the assay on E. coli HH 33779 amounted to 1.6 µg/mL (≈ 2.84 µM); in the assay with E. coli SK 12140 (setting [2]), 0.8 µg/mL (≈ 1.42 µM); with Proteus morgani 179 (setting [3]), 200 µg/mL (≈ 355 µM); with S. aureus HH 127 (setting [4]), 0.4 µg/mL (≈ 0.71 µM); in the assay with S. aureus SK 23390 (SK23390, read-out: MIC in vitro), 0.2 µg/mL (≈ 0.355 µM); in the assay with S. villaluz, 6.3 µg/mL (≈ 11.2 µM). For the same compound, the minimal inhibitory concentration (MIC) in the assay on Salmonella ATCC 12176 was 0.4 µg/mL (≈ 0.71 µM); in the assay on Strep. Faecalis HH 34358 (setting [5]), 12.5 µg/mL (≈ 22.2 µM); with shigella HH 117, 0.2 µg/mL (≈ 0.355 µM); with Kleb. pneumo. SK 1200 (setting [6]), 0.4 µg/mL (≈ 0.71 µM); in the assay on Kleb. pneumo. SK 4200 (read-out: MIC in vitro) it was 0.8 µg/mL (≈ 1.42 µM); in the assay on Psuedo. sp. HH 63 (setting [7]) it was more than 200 µg/mL. In addition, the minimum inhibitory concentration (MIC) worked out at 1.6 µg/mL (≈ 2.84 µM) in assay [1] (setting [8]); 100 µg/mL (≈ 177 µM) in the assay on Serra. marc ATCC 13880 (setting [9]); 0.8 µg/mL (≈ 1.42 µM) in the assay on Entero. cloacae HH 31254 (HH31254, read-out: MIC in vitro, Table 1). Further, the 50% effective dose (ED50) was 44 mg/kg with E. coli 12140 (Escherichia coli, 12140, po, Table 2, E. coli 12140, p.o., read-out: ED50 in vivo) and 1.56 mg/kg with E. coli 12140 (setting [10]).
